How the values were obtained:
[1] = collision cross section (TIMS, N2 drift gas) of the primary ion; higher = larger gas-phase ion size
Method: (§1)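 Reference mixture of environmental contaminants analysed by RP-LC (BEH C18, 50 °C; ESI+ with water/MeOH plus formic acid and ammonium formate, ESI- with ammonium bicarbonate) coupled to a timsTOF Pro 2 with trapped ion mobility in nitrogen (ramp/accumulation 100 ms). CCS was calibrated with Agilent tune mix (CCS compendium) and averaged over five injections at 0.5-500 ng/mL. The table reports the lowest-CCS (putative monomer) peak; retention times are on the same gradient.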

[2] = reversed-phase LC retention time (C18, 15 min MeOH gradient); higher = more hydrophobic / later elution
Method: as §1

[3] = ionization mode: ESI+, ion species: [M+H]+
[4] = ionization mode: ESI-, ion species: [M-H]-

| Compound | collision cross section [1, 3] [Å²] | collision cross section [1, 4] [Å²] | reversed-phase LC retention time [2, 3] [min] | reversed-phase LC retention time [2, 4] [min] |
| --- | --- | --- | --- | --- |
| CON(C)C(=O)Nc1ccc(Cl)c(Cl)c1 [Linuron] | 152.6 | 149.38 | 13.7 | 14 |
| CCCCC(CC)COC(=O)c1ccc(C(=O)OCC(CC)CCCC)c(C(=O)OCC(CC)CCCC)c1 (centres undefined) [Tris(2-ethylhexyl)trimellitate] | 258.93 |  | 20.9 |  |
| CC(CCl)OP(=O)(OC(C)CCl)OC(C)CCl (centres undefined) [Tris(1-chloro-2-propyl)phosphate] | 162.58 |  | 14.3 |  |
| CCNc1nc(Cl)nc(NC(C)C)n1 [Atrazine] | 148.84 |  | 12.8 |  |
| Nc1ccc(Cl)cc1 [4-Chloroaniline] | 114.68 |  | 8.59 |  |
| COc1nc(C)nc(NC(=O)NS(=O)(=O)c2ccccc2CCC(F)(F)F)n1 [Prosulfuron] | 188.2 | 189.48 | 13.9 | 11.9 |
| COP(=O)(OC)C(O)C(Cl)(Cl)Cl (centres undefined) [Trichlorfon] | 138.18 |  | 9.07 |  |
| CCC(C)(C)C(=O)OC1=C(c2ccc(Cl)cc2Cl)C(=O)OC12CCCCC2 [Spirodiclofen] | 193.38 |  | 11.5 |  |
| Oc1ccc(C(c2ccc(O)cc2)(C(F)(F)F)C(F)(F)F)cc1 [Bisphenol AF] |  | 165.55 |  | 14.8 |
| CCOCN(C(=O)CCl)c1c(C)cccc1CC [Acetochlor] | 158.08 |  | 15 |  |
| CC(C)(C)c1ccc(CSc2cnn(C(C)(C)C)c(=O)c2Cl)cc1 [Pyridaben] | 193.46 |  | 17.9 |  |
| CC(C)C(=O)OCC(C)(C)C(OC(=O)C(C)C)C(C)C (centres undefined) [2,2,4-Trimethyl-1,3-pentanediol diisobutyrate] | 172.79 |  | 17 |  |
| COP(=S)(OC)Oc1c(Cl)cc(C)cc1Cl [Toclofos-methyl] | 151.78 |  | 15.8 |  |
| CCCCC(CC)COC(=O)CC(C(=O)OCC(CC)CCCC)S(=O)(=O)O (centres undefined) [Dioctylsulfosuccinate] | 222.09 | 208.23 | 17.1 | 17.1 |
| CC(C)C1(C)N=C(c2ncccc2C(=O)O)NC1=O (centres undefined) [Imazapyr] | 156.96 |  | 8.78 |  |
| COP(=O)(OC)OC [Trimethylphosphate] | 116.51 |  | 6.15 |  |

| Compound | collision cross section [1, 3] [Å²] | collision cross section [1, 4] [Å²] | reversed-phase LC retention time [2, 3] [min] | reversed-phase LC retention time [2, 4] [min] |
| --- | --- | --- | --- | --- |
| CCCC(Cn1cncn1)c1ccc(Cl)cc1Cl (centres undefined) [Penconazole] | 166.33 |  | 15.5 |  |
| Cc1cc(Cc2ccc(N)c(C)c2)ccc1N [4,4'-Methylene-bis(2-methyl aniline)] | 171.67 |  | 8.47 |  |
| CC(C)C(=O)c1ccccc1 [Isobutyrophenone] | 128.32 |  | 17.1 |  |
| N#Cc1nn(-c2c(Cl)cc(C(F)(F)F)cc2Cl)c(N)c1S(=O)C(F)(F)F (centres undefined) [Fipronil] |  | 177.2 |  | 15.6 |
| Cc1cnc2c(C(=O)O)c(Cl)ccc2c1 [Quinmerac] | 139.87 |  | 9.27 |  |
| CCNc1nc(NC(C)C)nc(SC)n1 [Ametryne] | 155.28 |  | 12.8 |  |
| O=C(O)C(F)(F)C(F)(F)C(F)(F)C(F)(F)C(F)(F)C(F)(F)F [Perfluoroheptanoic acid] |  | 146.98 |  | 13.8 |
| O=[N+]([O-])c1ccc(O)c([N+](=O)[O-])c1 [2,4-Dinitrophenol] |  | 125.27 |  | 6.09 |
| COP(=S)(OC)Oc1ccc(SC)c(C)c1 [Fenthion] | 160.76 |  | 14.1 |  |
| O=C1Nc2ccc(Cl)cc2C(c2ccccc2Cl)=NC1O (centres undefined) [Lorazepam] | 168.84 | 167.96 | 13.2 | 13.5 |
| CN(C1CCCCC1)C1CCCCC1 [N-Methyl-dicyclohexylamine] | 148.45 |  | 9.45 |  |
| Oc1ccc(Cl)cc1Cc1ccccc1 [Chlorophene] |  | 147.97 |  | 15.9 |
| Oc1ccccc1-c1ccccc1 [2-Phenylphenol] |  | 134.42 |  | 13.9 |
| Cc1nccc2c1[nH]c1ccccc12 [Harman] | 136.39 | 135.7 | 8.86 | 13.4 |
| CCCCCCOC(=O)c1ccccc1C(=O)OCCCCCC [Di-n-hexyl phthalate] | 195.44 |  | 18.2 |  |
| CNC(=O)Oc1cccc2c1OC(C)(C)C2 [Carbofuran] | 147.19 |  | 11.7 |  |

More lines, now with the values ahead:

| collision cross section [1, 3] [Å²] | collision cross section [1, 4] [Å²] | reversed-phase LC retention time [2, 3] [min] | reversed-phase LC retention time [2, 4] [min] | Compound |
| --- | --- | --- | --- | --- |
| 145.06 | 145.07 | 6.83 | 9.84 | Clc1cccc(Cl)c1NC1=NCCN1 [Clonidine] |
| 203.71 | 198.56 | 14.6 | 15 | CC(C)(C)NC(=O)[C@H]1CC[C@H]2[C@@H]3CC[C@H]4NC(=O)C=C[C@]4(C)[C@H]3CC[C@]12C [Finasteride] |
| 143.3 | 145.19 | 9.58 | 8.57 | COc1cc2ccc(=O)oc2c(O)c1OC [Fraxidin] |
| 187.31 | 193.85 | 11.6 | 12.2 | CCOC(=O)[C@H](CCc1ccccc1)N[C@@H](C)C(=O)N1CCC[C@H]1C(=O)O [Enalapril] |
| 138.47 | 137.21 | 7.89 | 7.97 | CN(C)S(=O)(=O)c1ccc(N)cc1 [4-Amino-N,N-dimethylbenzenesulfonamide] |
| 186.86 |  | 14.2 |  | CC12CCC(=O)C=C1C=CC1[C@@H]2CCC2(C)[C@H]1CCC21CCC(=O)O1 (some centres undefined) [Canrenone] |
| 179.65 |  | 11.6 |  | CN1CCN(C2=Nc3cc(Cl)ccc3Nc3ccccc32)CC1 [Clozapine] |
| 160 | 165.62 | 12.7 | 11.9 | CCc1cccc(C)c1N(C(=O)C(=O)O)C(C)COC (centres undefined) [Metolachlor OA] |
| 201.58 | 189.02 | 14.2 | 14.2 | O=C(CC(C(=O)OC1CCCCC1)S(=O)(=O)O)OC1CCCCC1 (centres undefined) [Dicyclohexyl sulfosuccinate] |
|  | 182.24 |  | 14.3 | C#C[C@]1(O)CC[C@H]2[C@@H]3CCc4cc(O)ccc4[C@H]3CC[C@@]21C [17-alpha-Ethinylestradiol] |
| 190.49 | 190.87 | 14.6 | 14.9 | CC(=O)[C@@]1(O)CC[C@H]2[C@@H]3C=C(Cl)C4=CC(=O)[C@@H]5C[C@@H]5[C@]4(C)[C@H]3CC[C@@]21C [Cyproterone] |
| 116.95 |  | 6.07 |  | CN1CCN(C)C1=O [1,3-Dimethyl-2-imidazolidinone] |
| 175.82 |  | 8.22 |  | O=C(O)c1cn(C2CC2)c2cc(N3CCNCC3)c(F)cc2c1=O [Ciprofloxacin] |
| 123.51 |  | 5.06 |  | Cn1ncc(N)c(Cl)c1=O [Methyldesphenylchloridazon] |
| 162.42 |  | 11.9 |  | O=C1NC(=O)C(c2ccccc2)(c2ccccc2)N1 [Phenytoin] |
| 160.65 | 163.68 | 13.9 | 14.3 | O=C(NC1CCCCC1)NC1CCCCC1 [Dicyclohexylurea] |
| 161.99 | 172.55 | 14.3 | 9.47 | NS(=O)(=O)c1cc(C(=O)O)c(NCc2ccco2)cc1Cl [Furosemide] |
|  | 128.86 |  | 4.8 | O=C1NS(=O)(=O)c2ccccc21 [Saccharin] |
|  | 149.37 |  | 6.35 | O=C1CN(/N=C/c2ccc([N+](=O)[O-])o2)C(=O)N1 [Nitrofurantoin] |
|  | 197.93 |  | 10.2 | C[C@H]1c2cccc(O)c2C(=O)C2=C(O)[C@]3(O)C(=O)C(C(N)=O)=C(O)[C@@H](N(C)C)[C@@H]3[C@@H](O)[C@@H]21 [Doxycycline] |
| 154.89 |  | 10.7 |  | NC(=O)N1c2ccccc2CC(O)c2ccccc21 (centres undefined) [10,11-Dihydro-10-hydroxycarbamazepine] |
| 130.33 |  | 5.81 |  | Cn1cnc2c1c(=O)[nH]c(=O)n2C [Theobromine] |
| 158.06 | 165.63 | 6.06 | 8.43 | CN=C(NC#N)NCCSCc1nc[nH]c1C [Cimetidine] |
|  | 194.82 |  | 14.4 | C[C@H]1C[C@H]2[C@@H]3CCC4=CC(=O)C=C[C@]4(C)[C@@]3(F)[C@@H](O)C[C@]2(C)[C@@]1(O)C(=O)CCl [Clobetasol] |
| 191.29 | 176.96 | 11.4 | 11.6 | COc1cc(C[C@H]2COC(=O)[C@@H]2Cc2ccc(O)c(OC)c2)ccc1O [Matairesinol] |
| 216.64 | 206.33 | 5.52 | 3.71 | C[C@H](O)C(=O)Nc1c(I)c(C(=O)NC(CO)CO)c(I)c(C(=O)NC(CO)CO)c1I [Iopamidol] |
| 146.78 |  | 5.75 |  | Nc1nc(=O)n([C@@H]2CS[C@H](CO)O2)cc1F [Emtricitabine] |
| 152.57 | 149.99 | 7.36 | 7.04 | Cc1cccc(C)c1NC(=O)CS(=O)(=O)O |
| 143.1 |  | 2.23 |  | CC1(C)CC(O)CC(C)(C)N1CCO [4-Hydroxy-1-(2-hydroxyethyl)-2,2,6,6-tetramethylpiperidine] |
| 232.7 | 224.84 | 10.3 | 10.1 | O=c1cc(-c2ccc(O)cc2)oc2cc(O[C@@H]3O[C@H](CO)[C@@H](O)[C@H](O)[C@H]3O[C@@H]3OC[C@](O)(CO)[C@H]3O)cc(O)c12 [Apiin] |

Reference: the supplement of paper PMC12613149
